We go through 5 compounds from PMC4536076, “Chemical Library Screening and Structure-Function Relationship Studies Identify Bisacodyl as a Potent and Selective Cytotoxic Agent Towards Quiescent Human Glioblastoma Tumor Stem-Like Cells” (PLoS ONE, 2015).

Counter-ions that a name gives are not always drawn. Like-named read-outs stand apart in the source and are kept apart here.

The test system of one series is proliferating TG16 GSCs. Kind of series: ATP-Glo dose-response, proliferating TG16 GSCs. The settings on record: Homo sapiens; ATP Glo readout, 24 h treatment; read-out: P TG16 GSCs EC50. The series is classed as cell-based, human. As to the method:
(§1) The EC50 value was determined for each compound by fitting the data points according to the following equation: y=Smax+Smin*(x*1/EC50)^n/1+(x*1/EC50)^n where y represents the expected response, x is the chemical compound concentration, S max and S min are the maximum and minimum responses recorded, respectively and n is the Hill coefficient. Curve fitting was performed using Microsoft Excel Solver component.
(§2) Similar dose response curves were performed using GSCs isolated from GBM of two other patients (TG16 and OB1 GSCs) grown under proliferating and quiescent conditions.

The subject of a further series is quiescent TG16 GSCs. Kind of series: ATP-Glo dose-response, quiescent TG16 GSCs. In kind it is cell-based, human. The settings on record: Homo sapiens; ATP Glo readout, 24 h treatment; read-out: Q TG16 GSCs EC50. As to the method:
as §1, §2

Series [1] has as its system fetal neural stem cells (f-NSC). Description: ATP-Glo dose-response, fetal neural stem cells. The conditions noted are these: Homo sapiens, Neural stem cell; ATP Glo readout, 24 h treatment. In kind it is cell-based.
Another series relates to proliferating OB1 GSCs. Description: ATP-Glo dose-response, proliferating OB1 GSCs. In kind it is cell-based. The settings on record: Homo sapiens; ATP Glo readout, 24 h treatment; read-out: P OB1 GSCs EC50. The method, then: as §1, §2
Series [2] relates to quiescent TG1 GSCs. The settings on record: primary screen, 50 μM, 24 h. The method, boiled down: (§3)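 Cells seeded at 30 000 (proliferating) or 40 000 (quiescent) viable cells/well and treated with compound at 50 μM final, 1% DMSO, single test; hits retested in duplicate at 50 and 5 μM. ATP measured by luminescence, as percent of the mean signal of DMSO control wells.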
For a further series, the system named is quiescent TG1 cells. Kind of series: Cell viability, trypan blue staining, quiescent TG1 cells. The series is classed as cell-based, human. The conditions noted are these: quiescent TG1 GSCs, 10 μM, 24 hours.
The test system of series [3] is proliferating TG1 GSCs. Kind of series: ATP-Glo dose-response, proliferating TG1 GSCs. In kind it is cell-based, human.
Another series has as its system HEK 293 cells. Kind of series: ATP-Glo dose-response, HEK 293 cells. The conditions noted are these: Homo sapiens, HEK293; ATP Glo readout, 24 h treatment. In kind it is cell-based, human. As to the method: The EC50 value was determined for each compound by fitting the data points according to the following equation: y=Smax+Smin*(x*1/EC50)^n/1+(x*1/EC50)^n where y represents the expected response, x is the chemical compound concentration, S max and S min are the maximum and minimum responses recorded, respectively and n is the Hill coefficient. Curve fitting was performed using Microsoft Excel Solver component. […]

For a further series, the system named is quiescent OB1 GSCs. Kind of series: ATP-Glo dose-response, quiescent OB1 GSCs. The settings on record: Homo sapiens; ATP Glo readout, 24 h treatment; read-out: Q OB1 GSCs EC50. The series is classed as cell-based, human. The method, then: as §1, §2
In series [4] the test system is primary astrocytes (HA cells). Kind of series: ATP-Glo dose-response, primary astrocytes. The series is classed as cell-based, human. The conditions noted are these: Homo sapiens, Astrocyte; for EC50: ATP Glo readout, 24 h treatment.
Series [5] deals with quiescent TG1 GSCs. Kind of series: ATP-Glo dose-response, quiescent TG1 GSCs. The series is classed as cell-based, human.
The nature of a further series: Solubility measurements. In kind it is physicochemical. The conditions noted are these: data not shown.
A further series concerns Astrocytes. Set-up: method as in PMID 23039130. The settings on record: literature, ref [104]; cited from earlier work.
In series [6] the test system is proliferating TG1 GSCs. The settings on record: primary screen, 50 μM, 24 h. Summed up:
as §3

Series [7] has as its system human colon cancer cell line HT29. Set-up: method as in PMID 1888153. The settings on record: ref [58], read-out: EC50, decrease of proliferation; cited from earlier work.
Setting [8] is: Homo sapiens, 24 h, ATP Glo readout, 24 h treatment, n = 3, read-out: P TG1 GSCs EC50.
Setting [9] is: Homo sapiens, 24 h, ATP Glo readout, 24 h treatment, n = 3, read-out: Q TG1 GSCs EC50.

Description for quiescent TG1 cells: Cell mortality was evaluated by trypan blue staining (0.1% (v/v)).

Take `CC(=O)Oc1ccc(C(c2ccc(OC(C)=O)cc2)c2ccccn2)cc1` [Compound 1, 4,4'-diacetoxydiphenyl-2-pyridyl-methane]: the EC50 with proliferating TG16 GSCs was more than 100 µM; in the series with quiescent TG16 GSCs it was 1.3 ± 0.1 µM; in series [1], more than 100 µM; in the series on proliferating OB1 GSCs, more than 100 µM; in the series on proliferating TG1 GSCs [3] (setting [8]), more than 100 µM; in the series on HEK 293 cells, more than 100 µM. Moreover, the EC50 in the series on quiescent OB1 GSCs was 0.5 ± 0.1 µM; in series [4], 0.6 ± 0.3 µM; in the series on quiescent TG1 GSCs [5] (ATP Glo readout, 24 h treatment, n = 3, listed as Bisacodyl, read-out: Q TG1 GSCs EC50), 1.07 ± 0.04 µM; with quiescent TG1 GSCs [5] (setting [9]) it was approximately 1 µM. The “Activity on quiescent TG1 GSCs (hit compounds reducing ATP levels)” value with quiescent TG1 GSCs [2] is “yes”. In the series with quiescent TG1 cells, the “cell viability (trypan blue and 7-AAD staining)” value is listed as “resulted from cell death”. The Emax in series [4] (HA cells, not due to cell death, read-out: maximum effect: reduction of ATP levels) came to 30%.

In the case of `c1ccc(C(c2ccccc2)c2ccccn2)cc1` [Compound 6, Diphenyl-2-pyridylmethane], the solubility result in “Solubility measurements” is reported as “not due to reduced solubility”. The EC50 in the series on proliferating TG1 GSCs [3] (Homo sapiens, 24 h, SAR study, ATP-Glo cell survival assay, 24 h, triplicate, read-out: Proliferating TG1 GSCs EC50) was more than 100 µM; in the series on quiescent TG1 GSCs [5] (Homo sapiens, 24 h, SAR study, ATP-Glo cell survival assay, 24 h, triplicate, read-out: Quiescent TG1 GSCs EC50), 84.8 ± 4.1 µM.

As for `C=C1C(=O)O[C@H]2[C@H]1CC/C(C)=C/CC[C@@]1(C)O[C@@H]21` [Parthenolide], the EC50 is 10 ± 2 µM with proliferating TG16 GSCs; 186 ± 10 µM in the series on Astrocytes; 8.4 ± 0.2 µM in [1]; 18 ± 4 µM in the series on proliferating OB1 GSCs; 15 ± 2 µM in the series on proliferating TG1 GSCs [3] (setting [8]); 13 ± 5 µM with HEK 293 cells. Besides, the EC50 in the series on quiescent OB1 GSCs came to 35 ± 11 µM; in series [4] it was 59 ± 4 µM; with quiescent TG1 GSCs [5] (setting [9]) it was 48 ± 6 µM. In the series on proliferating TG1 GSCs [6], the “Activity on proliferating TG1 GSCs (hit compounds reducing ATP levels)” value was “yes”. For the same compound, the “Activity on quiescent TG1 GSCs (hit compounds reducing ATP levels)” value with quiescent TG1 GSCs [2] is “yes”.

Consider `C1CCC(C(CC2CCCCN2)C2CCCCC2)CC1` (stereo not drawn) [Perhexilin maleate], for which the EC50 with proliferating TG16 GSCs stood at 11 ± 1 µM; with quiescent TG16 GSCs it was 21 ± 4 µM; in series [1], 3 ± 1 µM; with proliferating OB1 GSCs, 12 ± 1 µM; in the series on proliferating TG1 GSCs [3] (setting [8]), 10 ± 1 µM; in the series with HEK 293 cells, 12 ± 1 µM. Also, the EC50 is 22 ± 4 µM in the series with quiescent OB1 GSCs, approximately 10 µM in series [7], 12 ± 2 µM in [4] and 14 ± 3 µM in the series on quiescent TG1 GSCs [5] (setting [9]). Besides, the “Activity on proliferating TG1 GSCs (hit compounds reducing ATP levels)” value in the series with proliferating TG1 GSCs [6] was “yes”. Also, the “Activity on quiescent TG1 GSCs (hit compounds reducing ATP levels)” value in the series on quiescent TG1 GSCs [2] is on record as “yes”.

On to `CC(C)(C)c1ccc(C(O)CCCN2CCC(C(O)(c3ccccc3)c3ccccc3)CC2)cc1` (stereo not drawn) [Terfenadine], for which the EC50 with proliferating TG16 GSCs was 9 ± 1 µM; in the series with quiescent TG16 GSCs, 24 ± 6 µM; in series [1] it was 4 ± 1 µM; with proliferating OB1 GSCs it was 10 ± 2 µM; in the series on proliferating TG1 GSCs [3] (ATP Glo readout, 24 h treatment, n = 3, read-out: P TG1 GSCs EC50), 8 ± 1 µM; in the series with proliferating TG1 GSCs [3] (setting [8]), approximately 10 µM. The EC50 in the series on HEK 293 cells worked out at 8 ± 1 µM; in the series with quiescent OB1 GSCs it was 22 ± 4 µM; in series [4] it was 9 ± 2 µM; in the series on quiescent TG1 GSCs [5] (setting [9]), 17 ± 1 µM. Moreover, the “Activity on proliferating TG1 GSCs (hit compounds reducing ATP levels)” value with proliferating TG1 GSCs [6] is “yes”. In addition, the “Activity on quiescent TG1 GSCs (hit compounds reducing ATP levels)” value with quiescent TG1 GSCs [2] is reported as “yes”.
